# From patent US9526785B2, “Pharmaceuticals for oral delivery” (Enteris BioPharma, Inc., priority 2013, dated 2016)
# Tests used:
# [1] = known formulations; cited from earlier work
# [2] = Tigecycline plasma PK after IV bolus in anesthetized rats; format: in vivo; details: female, Sprague-Dawley, rat
# Method: Naïve, female Sprague-Dawley Rats (Taconic Farms, Germantown, N.Y.) housed in groups of three were maintained in a climate-controlled room on a 12:12 h light-dark cycle with food and water available ad libitum. Animals weighed approximately 250 g at the time of testing. Rats were fasted overnight (with water available), prior to dosing. Tigecycline stock was prepared fresh on the day of each study in water and diluted in the indicated formulations.
# Intravenous (IV) doses were administered as a bolus injection into the left carotid […] at a dose volume of 1.6 mL/kg. Intraduodenal doses were administered as bolus injections into the duodenum at a dose volume of 1.2 mL/kg.
# Female rats were maintained in groups of 3 per polycarbonate (or equivalent) shoebox cage with fresh wood chip bedding at 20-22° C. under a 12 hour on/off light:dark cycle. The rats were fasted overnight prior to surgery and anesthetized by intramuscular injection of 0.3 mL fresh ketamine (67 mg/mL)/xylazine (42 mg/mL) in 0.9% saline into the hind flank. After the rats went limp they were injected intraperitoneally (IP) with 0.1 mL ketamine/xylazine. The anesthetic state was maintained by IP injection of ketamine/xylazine on an as needed basis. Animal weights were determined post-anesthesia induction.
# An indwelling catheter for blood sampling was inserted into the right carotid artery by exposing the trachea with Mayo scissors, clamping the bottom of the […] and tying off the top with surgical suture. The area between was nicked with small sharp scissors and Intramedic polyethylene tubing was inserted into the nicked area. The artery with the tubing was sealed with suture to prevent leakage. A 23-gauge Intramedic Luer Stub Adapter was inserted into the cannula and attached to a 3 way valve which was connected to a 3 cc syringe filled with 0.9% normal saline and a 1 cc syringe filled with 5 U/mL sodium heparin for blood sampling.
# Blood samples were collected in tubes containing 20 μL 180 mM EDTA. The tubes were maintained on ice and then centrifuged at approximately 3000 rpm at 4° C. for 5 minutes. Plasma was harvested immediately after centrifugation of the samples and stored at −20° C. pending analysis.
# Minocycline (VWR international) was used as an internal standard. Sample processing/clean-up of plasma samples was carried out offline by protein precipitation with acidified acetonitrile.
# The HPLC system consisted of Shimadzu SIL-HTc HPLC system equipped with dual Shimadzu LC-10ADvp isopumps, a Shimadzu CTO-10ASvp column temperature controller and a Shimadzu SPD-10Avp variable wavelength detector. […] Mobile phase A consisted of 23 mM phosphate buffer pH 2.5 with 6 mM 1-octanesulfonic acid, while mobile phase B consisting of pure acetonitrile. […] The mobile phase flow rate was 1.2 mL/min. Detection was performed using the SPD-10Avp variable wavelength detector set at 350 nm, with a sensitivity of 0.001 aufs.
# The samples were then centrifuged under refrigeration at 13 k rpm for 30 minutes. The supernatant was taken and the liquid was removed to dryness in a turbovap. The samples were then reconstituted in 55 μL 0.1M phosphate buffer, pH 3.8. Samples were maintained at 10° C. while on the autoinjector during sequence. The injection volume was 50 μL. The unknown concentration in rat plasma samples was determined by interpolation of the peak area ratios of analyte:internal standard versus the ratio of their nominal concentrations into the regression line obtained from calibration standards spiked in pooled rat plasma. No regression weighting was used for the calculations. […] The calibration curve covered the range of 0.05 μg/mL to 5.0 μg/mL.
# Due to analytical issues observed in the analyses of earlier study samples, the analytical method was changed slightly for later samples. Mobile phase A was changed to 23 mM phosphate buffer pH 2.5 with 4 mM 1-octanesulfonic acid, while mobile phase B was changed to 90% acetonitrile, 10% water, with 2 mM 1-octanesulfonic acid. […]
# [3] = IV bolus 0.64 mg/kg, PBS (RA851)
compound,measurement,setting,value
CN(C)c1cc(NC(=O)CNC(C)(C)C)c(O)c2c1C[C@H]1C[C@H]3[C@H](N(C)C)C(O)=C(C(N)=O)C(=O)[C@@]3(O)C(O)=C1C2=O [Tigecycline],maximal oral bioavailablity % (% F),[1],less than 5%
same,AUC(0-t),[2]; [3],970 ng·h/mL
same,Cmax,[2]; [3],1790 ng/mL
same,Tmax,[2]; [3],5 min
same,concentration at 0 min,[2]; [3],0 ng/mL
same,concentration at 5 min,[2]; [3],1790 ng/mL
same,concentration at 10 min,[2]; [3],888 ng/mL
same,concentration at 20 min,[2]; [3],447 ng/mL
same,concentration at 30 min,[2]; [3],376 ng/mL
same,concentration at 60 min,[2]; [3],290 ng/mL
same,concentration at 120 min,[2]; [3],216 ng/mL
same,concentration at 240 min,"[2]; IV bolus 0.64 mg/kg, PBS (RA851), 240 min",116 ng/mL
same,AUC(0-t),"[2]; IV bolus 12 mg/kg, PBS (RA853)",13200 ng·h/mL
same,Cmax,"[2]; IV bolus 12 mg/kg, PBS (RA853)",50700 ng/mL
same,Tmax,"[2]; IV bolus 12 mg/kg, PBS (RA853)",5 min
same,concentration at 0 min,"[2]; IV bolus 12 mg/kg, PBS (RA853)",0 ng/mL
same,concentration at 5 min,"[2]; IV bolus 12 mg/kg, PBS (RA853)",50700 ng/mL
same,concentration at 10 min,"[2]; IV bolus 12 mg/kg, PBS (RA853)",26200 ng/mL
same,concentration at 20 min,"[2]; IV bolus 12 mg/kg, PBS (RA853)",9310 ng/mL
same,concentration at 30 min,"[2]; IV bolus 12 mg/kg, PBS (RA853)",5760 ng/mL
same,concentration at 60 min,"[2]; IV bolus 12 mg/kg, PBS (RA853)",2610 ng/mL
same,concentration at 120 min,"[2]; IV bolus 12 mg/kg, PBS (RA853)",1870 ng/mL
same,AUC(0-t),"[2]; RA869, IV, 0.6 mg/kg",132 ng·h/mL
same,Cmax,"[2]; RA869, IV, 0.6 mg/kg",369 ng/mL
same,Tmax,"[2]; RA869, IV, 0.6 mg/kg",7.5 min
